Test results reported in patent US5192774A, “Substituted acetamide derivatives, process for their preparation and antiulcer drug containing same” (Zeria Pharmaceutical Co., Ltd., priority 1988, dated 1993).

Assays:
[1] = tested on: ICR:Crj 5 week old male mice; experiment: Toxicity test, repeated oral administration for 14 days; format: in vivo, mouse (ICR:Crj; settings: 500 mg/kg/day
Procedure: (§1) The compounds according to Examples 2, 7, 8 and 12 were respectively suspended in 3% gum arabic solution and continuously, forcedly and orally administrated to three ICR:Crj 5 week old male mice for 14 days at a dose of 500 mg/kg/day.

[2] = tested on: gastric acid secretion (histamine-stimulated); experiment: Effects on Gastric Acid Secretion of Anesthesia Fistula Rat by Histamine; format: in vivo, rat (male SD); settings: 30 mg/kg, histamine infusion, acid output 1 to 4 hours after administration
Procedure: The aggressive factor inhibition action was evaluated from the effects on the gastric acid secretion of anesthesia fistula rats by histamine, while the protective factor potentiation action was evaluated from the effects observed in a hydrochloric acid-ethanol ulcer model. In the Tables, the column of test compounds indicates Example numbers where the compounds are prepared. Male SD rats (Japan Charles River Co., Ltd.) each weighing 180 to 200 g were fasted for 24 hours before celiotomy with etherrization. A feeding tube (fr. 3.5) for injecting test medicines was inserted into the duodenum, and the pylorus was ligatured. A polyethylene tube (inner diameter: 7 mm) was used in the anterior stomach and gastric fistula was performed. After washing the inside of the stomach with heated physiological salt solution (37° C.) several times, the body was closed. A tube with a fin was inserted into the caudal vein and was fastened with a tape and it was connected to a infusion pump (Harvard). The rats were enclosed in a KN Ballman II cage (Natsume Seisakusho). Gastric juice flowed from the fistula was collected with a […] one hour. Starting form one hour after the operation, histamine was continuously injected at a rate of 1.4 ml/hour through the caudal vein. Then, test compounds suspended in 0.5% sodium caboxy methyl cellulose (Na-CMC) were administered one hour after the start of the histamine injection. The gastric juice thus extracted in a period from one hour after the administration of the chemical to four hours after that was titrated by using an automatic titration aparatus (Kyoto Electronic) with 0.1N NaOH to adjust pH 7, and the quantity of the gastric juice was measured to obtain the total acid output. […] [formula]

[3] = Acute toxicity test by oral administration; format: in vivo
Procedure: as §1

[4] = tested on: ulcer formation caused by hydrochloric acid-ethanol; experiment: Hydrochloric Acid-Ethanol Ulcer Test; format: in vivo, rat (male SD); settings: 100 mg/kg, oral, 30 minutes before hydrochloric acid-ethanol; rat
Procedure: The aggressive factor inhibition action was evaluated from the effects on the gastric acid secretion of anesthesia fistula rats by histamine, while the protective factor potentiation action was evaluated from the effects observed in a hydrochloric acid-ethanol ulcer model. In the Tables, the column of test compounds indicates Example numbers where the compounds are prepared.
Male SD rats each weighing 170 to 190 g were fasted for 24 hours, and 1 ml of 150 mM hydrochloric acid-60% ethanol was orally administered to each rat. After one hour, rats were clubbed to death, and the stomach was extracted. 10 ml of 2% formalin solution was applied to the stomach for fixing for 10 minutes. The length (mm) of the injuries in the tunica mucosa taken place in the glandular stomach was measured under a stereoscopic microscope. The total length of the injuries of the individual was taken as the ulcer index.
Test compounds or control (1% Na-CMC) were orally administered in an amount of 0.5 ml/100 g, 30 minutes before the administration of hydrochloric acid-ethanol.

Compound	death [1]	Gastric acid secretion inhibition effect (%) [2] [%]	LD50 ([3]; mouse, in vivo, po) [mg/kg]	Ulcer Inhibition Rate(%) [4] [%]	LD50 value ([3]; acute, oral administration) [mg/kg]
O=C(CSCCO)NCCCOc1cccc(CN2CCCC2)c1 [Example 8, N-[3-[3-(1-pyrrolidinylmethyl)phenoxy]propyl]-2-(2-hydroxyethyl-1-thio)acetamide]	No rat died	70.9	–	–	–
O=C(CS(=O)(=O)CCO)NCCCOc1cccc(CN2CCCCC2)c1 [Example 7, N-[3-[3-(piperidinomethyl)phenoxy]propyl]-2-(2-hydroxyethylsulfonyl)acetamide]	No rat died	59.4	–	–	–
CC(=O)OCCSCC(=O)NCCCOc1cccc(CN2CCCC2)c1 [Example 12, N-[3-[3-(1-pirrolidinylmethyl)phenoxy]propyl]-2-(2-acetoxyethyl-1-thio)acetamide]	No rat died	55.4	–	–	–
O=C(CSCCO)NCCCOc1cccc(CN2CCCCC2)c1 [Example 2, N-[3-[3-(piperidinomethyl)phenoxy]propyl]-2-(2-hydroxyethyl-1-thio)acetamide]	No rat died	79.5	2380	72.5	–
CN/C(=N/CCSCc1nc[nH]c1C)NC#N [Cimetidine, reference compound]	–	32.3	–	22.7	–
O=C(CO)NCCCOc1cccc(CN2CCCCC2)c1 [Roxatidine, reference compound]	–	68.8	–	69.4	755
